One assay concerns PANC-1. As to the kind of experiment: Anticancer activity against human PANC-1 cells assessed as reduction in cell viability by measuring ATP level incubated for 24 hrs by CellTiter-Glo assay. The following applies: PANC-1, 24 h. The assay is classed as functional, cell-based. A general note: Cellular ATP, detected with luciferase, serves as a proxy for viable cell number.
The subject of a further assay is NCI-H292. Description: Anticancer activity against human NCI-H292 cells assessed as reduction in cell proliferation incubated for 48 hrs by Calcein AM and Pluronic F-127 staining based fluorescence plate reader analysis. The assay is classed as functional. To be noted: NCI-H292, 48 h.
Assay [1] can be described thus: Inhibition of mitochondrial F0F1-ATPase (unknown origin). Further details: species or system Homo sapiens.
The test system of a further assay is SMMC-7721. Description: Antiproliferative activity against human SMMC-7721 cells assessed as reduction in cell viability incubated for 48 hrs by MTT assay. The following applies: SMMC-7721, 48 h. The assay is classed as functional, cell-based. (Formazan colour is commonly taken as a measure of viable cells.)
The next assay relates to MDA-MB-231. As to the kind of experiment: Antiproliferative activity against human MDA-MB-231 cells assessed as reduction in cell viability incubated for 48 hrs by MTT assay. Type of assay: functional, cell-based. To be noted: MDA-MB-231, 48 h.
Another assay deals with HL-60. Description: Antiproliferative activity against human HL-60 cells assessed as reduction in cell viability incubated for 48 hrs by MTT assay. The assay is classed as functional, cell-based. The following applies: HL-60, 48 h.
The test system of another assay is MCF7. Description: Antiproliferative activity against human MCF7 cells assessed as reduction in cell viability incubated for 48 hrs by MTT assay. Type of assay: functional, cell-based. To be noted: MCF7, 48 h.
A further assay relates to SW480. As to the kind of experiment: Antiproliferative activity against human SW480 cells assessed as reduction in cell viability incubated for 48 hrs by MTT assay. The assay is classed as functional, cell-based. The following applies: SW480, 48 h.
A further assay deals with T47D. As to the kind of experiment: Antiproliferative activity against human T47D cells assessed as reduction in cell viability incubated for 48 hrs by MTT assay. The assay is classed as functional, cell-based.
The nature of assay [2]: Inhibition of bovine heart mitochondrial F0F1-ATPase assessed as reduction in ATP synthesis by fluorescence assay. The assay is classed as mitochondria, Bos taurus, Mitochondria.
The subject of a further assay is A549. Description: Antiproliferative activity against human A549 cells assessed as reduction in cell viability incubated for 48 hrs by MTT assay. The assay is classed as functional, cell-based. To be noted: A549, 48 h.
Assay [3] in a line: Inhibition of bovine heart mitochondrial F0F1-ATPase assessed as decrease in rate of ATP hydrolysis by fluorescence assay. The assay is classed as mitochondria, Bos taurus, Mitochondria.
The next assay concerns N2a. As to the kind of experiment: Antiproliferative activity against mouse Neuro2a cells assessed as reduction in cell viability incubated for 48 hrs by MTT assay. The assay is classed as functional, cell-based.
The subject of another assay is NCI-H460. As to the kind of experiment: Antiproliferative activity against human NCI-H460 cells assessed as reduction in cell viability incubated for 48 hrs by MTT assay. The assay is classed as functional, cell-based. To be noted: NCI-H460, 48 h.
Assay [4] in a line: Anticancer activity against rat E1A-3Y1-1 cells assessed as reduction in cell viability incubated for 3 days by MTT assay. Type of assay: functional, cell-based. To be noted: E1A-3Y1-1, 72 h.
Assay [5] is described as follows: Anticancer activity against human ACC-MESO-1 cells assessed as reduction in cell viability incubated for 72 hrs by WST-8 assay. To be noted: ACC-MESO-1, 72 h. The assay is classed as functional, cell-based.
The nature of assay [6]: Anticancer activity against rat HR-3Y1-1 cells assessed as reduction in cell viability incubated for 3 days by MTT assay. Type of assay: functional, cell-based. The following applies: HR-3Y1-1, 72 h.
The nature of assay [7]: Anticancer activity against rat SR-3Y1-2 cells assessed as reduction in cell viability incubated for 3 days by MTT assay. The assay is classed as functional, cell-based. The following applies: SR-3Y1-2, 72 h.
A short description of assay [8]: Anticancer activity against rat SR-3Y1-3 cells assessed as reduction in cell viability incubated for 3 days by MTT assay. The assay is classed as functional, cell-based. The following applies: SR-3Y1-3, 72 h.
Assay [9] in a line: Anticancer activity against rat HR-3Y1-3 cells assessed as reduction in cell viability incubated for 3 days by MTT assay. The assay is classed as functional, cell-based. To be noted: HR-3Y1-3, 72 h.
Assay [10] is described as follows: Anticancer activity against rat E1A-3Y1-2 cells assessed as reduction in cell viability incubated for 3 days by MTT assay. The assay is classed as functional, cell-based. To be noted: E1A-3Y1-2, 72 h.
Assay [11] is described as follows: Anticancer activity against rat HR-3Y1-2 cells assessed as reduction in cell viability incubated for 3 days by MTT assay. The following applies: HR-3Y1-2, 72 h. The assay is classed as functional, cell-based.
Assay [12] in a line: Anticancer activity against rat Ad12-3Y1-Z11 cells assessed as reduction in cell viability incubated for 3 days by MTT assay. The assay is classed as functional, cell-based. The following applies: Ad12-3Y1-Z11, 72 h.
The nature of assay [13]: Anticancer activity against rat SR-3Y1-1 cells assessed as reduction in cell viability incubated for 3 days by MTT assay. The assay is classed as functional, cell-based. The following applies: SR-3Y1-1, 72 h.
A further assay concerns Jurkat. Description: Anticancer activity against human Jurkat cells assessed as reduction in cell viability incubated for 72 hrs by WST-8 assay. The assay is classed as functional, cell-based.
A short description of assay [14]: Anticancer activity against rat Ad12-3Y1-Z19 cells assessed as reduction in cell viability incubated for 3 days by MTT assay. The assay is classed as functional, cell-based. To be noted: Ad12-3Y1-Z19, 72 h.
Assay [15] can be described thus: Anticancer activity against rat Ad12-3Y1-W5 cells assessed as reduction in cell viability incubated for 3 days by MTT assay. The assay is classed as functional, cell-based. To be noted: Ad12-3Y1-W5, 72 h.
The test system of a further assay is SK-OV-3. As to the kind of experiment: Anticancer activity against human SK-OV-3 cells assessed as reduction in cell viability incubated for 72 hrs by WST-8 assay. The assay is classed as functional, cell-based. The following applies: SK-OV-3, 72 h.
A short description of assay [16]: Anticancer activity against rat SV-3Y1-C66 cells assessed as reduction in cell viability incubated for 3 days by MTT assay. Type of assay: functional, cell-based. To be noted: SV-3Y1-C66, 72 h.
The nature of assay [17]: Anticancer activity against rat Ad12-3Y1-Z13 cells assessed as reduction in cell viability incubated for 3 days by MTT assay. Type of assay: functional, cell-based. The following applies: Ad12-3Y1-Z13, 72 h.
Assay [18] is described as follows: Anticancer activity against rat E1A-3Y1-3 cells assessed as reduction in cell viability incubated for 3 days by MTT assay. To be noted: E1A-3Y1-3, 72 h. Type of assay: functional, cell-based.

The structures appear in SMILES notation. Square brackets hold non-standard residues; d marks the D form. Peptide text beside a SMILES is read from it. * marks the point of attachment. X4 = CC(C)C[C@@H](C[N+]1=C2CCCN2CCC1)N*; Pip = O=C(O)[C@@H]1CCCCN1; Iva = CC[C@](C)(N)C(=O)O; Aib = CC(C)(N)C(=O)O; βAla = NCCC(=O)O

For `CC[C@](C)(NC(=O)[C@H](CC(C)C)NC(=O)[C@H](C)NC(=O)C(C)(C)NC(=O)[C@@H]1CCCCN1C(=O)C(C)(C)NC(=O)C(C)(C)NC(=O)CNC(=O)CCNC(=O)[C@H](CC(C)C)NC(=O)C(C)(C)NC(=O)C(C)(C)NC(=O)[C@@H]1CCCCN1C(=O)C(C)(C)NC(=O)[C@@H]1CCCCN1C(C)=O)C(=O)N[C@@H](CC(C)C)C[N+]1=C2CCCN2CCC1` (Ac-[Pip][Aib][Pip][Aib][Aib]L[βAla]G[Aib][Aib][Pip][Aib]AL[Iva]-X4), the half-maximal inhibitory concentration (IC50) (in general, the concentration that inhibits the measured activity by half) in the assay on PANC-1 is 52 nM.
As for `COC[C@@H](C[C@H]1O[C@@](O)([C@H](O)[C@@H]2C[C@H](OC)[C@@H](O)CC/C=C(C)/C=C/[C@@H](O[C@@H]3O[C@@H](C)[C@H](OC)[C@@H](O)[C@@H]3O)[C@H](C)/C=C(C)/C=C(C)/C=C(\C)C(=O)O2)[C@H](C)[C@@H](O)[C@H]1C)O[C@H]1C[C@](C)(O)[C@@H](O[C@H]2C[C@@H](OC)[C@H](O)[C@@H](C)O2)[C@H](C)O1`, the IC50 was 32 nM in the assay on NCI-H292 and 700 nM in assay [1].
For `CC[C@H]1O[C@@]2(C)[C@H](OC(C)=O)[C@@]1(C)O[C@@H](/C=C/C=C/C=C/c1oc(=O)cc(OC)c1C)[C@@H]2O`, the concentration for half-maximal inhibition (IC50) was 10800 nM with SMMC-7721; 5520 nM in the assay on MDA-MB-231; 14700 nM in the assay with HL-60; 90 nM in the assay with MCF7; 22400 nM with SW480; 890 nM in the assay on T47D. Besides, in the assay with A549, the IC50 was 14700 nM. For the same compound, the results for the inhibition constant (Ki) in assay [2] and in assay [3] were 25 nM and 120 nM, respectively.
`CO[C@H]1[C@H](O[C@@H]2C[C@@H]3C/C=C/C(=O)O[C@H](CO)C[C@H](O)[C@@H]4C[C@H](C)[C@H](/C=C\C=C\[C@H](C)C[C@H](C2)O3)O4)O[C@@H](C)[C@H](O)[C@H]1O`: the values for the half-inhibitory concentration (IC50) in the assay on N2a and in the assay on NCI-H460 were 44 nM and 12 nM, respectively.
Turning to `CC[C@H](C)[C@@H]1NC(=O)[C@H](NC(=O)[C@H](C)NC(=S)[C@H](C)NC(=S)[C@H](C)NC(=S)[C@H](C)NC(=S)[C@H](CCSC)NC(=S)[C@@H](NC(=O)C(C)(O)CC(C)=O)C(C)C)CS/C=C\NC(=O)[C@H](C(O)c2cn(C)c[n+]2C)NC(=O)[C@H](CC(C)C)NC(=O)[C@H](C)NC1=O` (stereo partly specified), the IC50 in assay [4] is 0.032 µg/mL; in [5], 27800 nM; in assay [6], 0.2 µg/mL; in [7] it was 0.63 µg/mL; in assay [8], 0.63 µg/mL; in assay [9] it was 0.2 µg/mL. Besides, the IC50 in assay [10] came to 0.032 µg/mL; in assay [11], 0.2 µg/mL; in [12], 0.0039 µg/mL; in [13], 0.63 µg/mL; in the assay with Jurkat it was 12500 nM; in assay [14] it was 0.0039 µg/mL. Further, the concentration for half-maximal inhibition (IC50) in [15] is 0.0039 µg/mL; in the assay on SK-OV-3 it was 38000 nM; in assay [16], 0.46 µg/mL; in assay [17], 0.0039 µg/mL; in [18], 0.032 µg/mL.

Source of the values: ChEMBL document CHEMBL5230122, “Natural products and other inhibitors of F1FO ATP synthase” (Eur J Med Chem, 2020).
